Assay results taken from patent US20240226228A1, “ANTIMICROBIAL PEPTOID HAVING IMPROVED SELECTIVITY AND ANTIMICROBIAL COMPOSITION COMPRISING SAME” (priority 2021, published 2024).
Values after ≈ are worked out from the molar mass of the structure shown. Like-named read-outs stand apart in the source and are kept apart here. Where a SMILES comes first, the peptide text is derived from it. [ ]: non-standard residue; d: D form. Gly(N(CH2)2(3-indolyl)) = O=C(O)CNCCc1c[nH]c2ccccc12; Gly(N-CH2CH2-imidazol-4-yl) = O=C(O)CNCCc1c[nH]cn1; Nspe = C[C@H](NCC(=O)O)c1ccccc1; Nlys = NCCCCNCC(=O)O

Tests used:
E. coli ATCC25922 = system: E. coli ATCC25922
Procedure, shortened: (§1)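 Cation-adjusted MHB2 cultures (18 h, subcultured 4 h) adjusted to 2×10^5–5×10^5 CFU/mL in medium with 0.02% BSA and 0.001% acetic acid.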

S. aureus ATCC 25923 = system: S. aureus ATCC 25923
Procedure, shortened: as §1

red blood cells = assay: Hemolysis assay; assay type: cell-based, Sprague-Dawley mouse
Procedure, shortened: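 Peptoid is mixed with 10% (v/v) PBS-washed erythrocytes (male Sprague-Dawley […], 13 weeks) and held 1 h at 37 °C. Hemolysis is calculated from 540 nm absorbance of the supernatant, with PBS as 0% and Triton X-100 as 100%.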

[1] = Tables 11-13, 24 hours at 37° C., maximum concentration 25 μM

Compound	MIC E. coli ATCC25922 (E. coli ATCC25922; [1])	MIC S. aureus ATCC 25923 (S. aureus ATCC 25923; [1])	HC10 (red blood cells)	HC50 (red blood cells)	Hmax (100 μM) (red blood cells)	MIC E. coli ATCC25922 (E. coli ATCC25922; ATCC25922)	MIC S. aureus ATCC 25923 (S. aureus ATCC 25923; ATCC 25923)	HD10 (red blood cells)	HD50 (red blood cells)
C[C@@H](c1ccccc1)N(CC(N)=O)C(=O)CN(C(=O)CN(CCCCN)C(=O)CN(C(=O)CN(C(=O)CN(CCCCN)C(=O)CN(C(=O)CN(C(=O)CN(CCCCN)C(=O)CN(Cc1ccccc1)C(=O)CN(Cc1ccccc1)C(=O)CNCCCCN)[C@@H](C)c1ccccc1)[C@@H](C)c1ccccc1)[C@@H](C)c1ccccc1)[C@@H](C)c1ccccc1)[C@@H](C)c1ccccc1 [Peptoid 46]	6.3 µM (≈ 11.3 µg/mL)	0.8 µM (≈ 1.43 µg/mL)	6.9 µM	36.5 µM	90.8 ± 2.7%				
C[C@@H](c1ccccc1)N(CC(N)=O)C(=O)CN(CCCCN)C(=O)CN(CCCCN)C(=O)CN(C(=O)CN(C(=O)CN(CCCCN)C(=O)CN(C(=O)CN(C(=O)CN(CCCCN)C(=O)CN(Cc1ccccc1)C(=O)CN(Cc1ccccc1)C(=O)CNCCCCN)[C@@H](C)c1ccccc1)[C@@H](C)c1ccccc1)[C@@H](C)c1ccccc1)[C@@H](C)c1ccccc1 [Peptoid 47]	25 µM (≈ 44 µg/mL)	12.5 µM (≈ 22 µg/mL)	>100/>100 μM	>100/>100 μM	4.8 ± 0.2%				
C[C@H](NCC(=O)N(CCCCN)CC(=O)N(CC(=O)N(CC(=O)N(CCCCN)CC(=O)N(CC(=O)N(CC(=O)N(CCCCN)CC(=O)N(CC(=O)N(CC(=O)N(CCCCN)CC(=O)N(CC(N)=O)[C@@H](C)c1ccccc1)[C@@H](C)c1ccccc1)[C@@H](C)c1ccccc1)[C@@H](C)c1ccccc1)[C@@H](C)c1ccccc1)[C@@H](C)c1ccccc1)[C@@H](C)c1ccccc1)c1ccccc1 [Peptoid 48] (H-[Nspe][Nlys][Nspe][Nspe][Nlys][Nspe][Nspe][Nlys][Nspe][Nspe][Nlys][Nspe]-NH2)	12.5 µM (≈ 22.7 µg/mL)	3.1 µM (≈ 5.64 µg/mL)	25.7 µM	48.4 µM	79.9 ± 3.6%				
C[C@@H](c1ccccc1)N(CC(N)=O)C(=O)CN(CCCCN)C(=O)CN(CCCCN)C(=O)CN(C(=O)CN(C(=O)CN(CCCCN)C(=O)CN(C(=O)CN(C(=O)CN(CCCCN)C(=O)CN(CCc1c[nH]c2ccccc12)C(=O)CN(CCc1c[nH]c2ccccc12)C(=O)CNCCc1c[nH]cn1)[C@@H](C)c1ccccc1)[C@@H](C)c1ccccc1)[C@@H](C)c1ccccc1)[C@@H](C)c1ccccc1 [Peptoid 72] (H-[Gly(N-CH2CH2-imidazol-4-yl)][Gly(N(CH2)2(3-indolyl))][Gly(N(CH2)2(3-indolyl))][Nlys][Nspe][Nspe][Nlys][Nspe][Nspe][Nlys][Nlys][Nspe]-NH2)					11.8 ± 1.1	6.3 µM (≈ 11.9 µg/mL)	6.3 µM (≈ 11.9 µg/mL)	88.9	> 100.0
C[C@@H](c1ccccc1)N(CC(N)=O)C(=O)CN(CCCCN)C(=O)CN(CCCCN)C(=O)CN(C(=O)CN(C(=O)CN(CCCCN)C(=O)CN(C(=O)CN(C(=O)CN(CCc1c[nH]cn1)C(=O)CN(CCc1c[nH]c2ccccc12)C(=O)CN(CCc1c[nH]c2ccccc12)C(=O)CNCCCCN)[C@@H](C)c1ccccc1)[C@@H](C)c1ccccc1)[C@@H](C)c1ccccc1)[C@@H](C)c1ccccc1 [Peptoid 73] (H-[Nlys][Gly(N(CH2)2(3-indolyl))][Gly(N(CH2)2(3-indolyl))][Gly(N-CH2CH2-imidazol-4-yl)][Nspe][Nspe][Nlys][Nspe][Nspe][Nlys][Nlys][Nspe]-NH2)					10.0 ± 0.3	6.3 µM (≈ 11.9 µg/mL)	3.1 µM (≈ 5.85 µg/mL)	>100.0/>100.0	>100.0/>100.0
C[C@@H](c1ccccc1)N(CC(N)=O)C(=O)CN(CCCCN)C(=O)CN(CCCCN)C(=O)CN(C(=O)CN(C(=O)CN(CCc1c[nH]cn1)C(=O)CN(C(=O)CN(C(=O)CN(CCCCN)C(=O)CN(CCc1c[nH]c2ccccc12)C(=O)CN(CCc1c[nH]c2ccccc12)C(=O)CNCCCCN)[C@@H](C)c1ccccc1)[C@@H](C)c1ccccc1)[C@@H](C)c1ccccc1)[C@@H](C)c1ccccc1 [Peptoid 74] (H-[Nlys][Gly(N(CH2)2(3-indolyl))][Gly(N(CH2)2(3-indolyl))][Nlys][Nspe][Nspe][Gly(N-CH2CH2-imidazol-4-yl)][Nspe][Nspe][Nlys][Nlys][Nspe]-NH2)					14.2 ± 0.3	6.3 µM (≈ 11.9 µg/mL)	3.1 µM (≈ 5.85 µg/mL)	81.7	> 100.0
C[C@@H](c1ccccc1)N(CC(N)=O)C(=O)CN(CCCCN)C(=O)CN(CCc1c[nH]cn1)C(=O)CN(C(=O)CN(C(=O)CN(CCCCN)C(=O)CN(C(=O)CN(C(=O)CN(CCCCN)C(=O)CN(CCc1c[nH]c2ccccc12)C(=O)CN(CCc1c[nH]c2ccccc12)C(=O)CNCCCCN)[C@@H](C)c1ccccc1)[C@@H](C)c1ccccc1)[C@@H](C)c1ccccc1)[C@@H](C)c1ccccc1 [Peptoid 75] (H-[Nlys][Gly(N(CH2)2(3-indolyl))][Gly(N(CH2)2(3-indolyl))][Nlys][Nspe][Nspe][Nlys][Nspe][Nspe][Gly(N-CH2CH2-imidazol-4-yl)][Nlys][Nspe]-NH2)					18.3 ± 1.1	6.3 µM (≈ 11.9 µg/mL)	6.3 µM (≈ 11.9 µg/mL)	68.0	> 100.0
C[C@@H](c1ccccc1)N(CC(N)=O)C(=O)CN(CCc1c[nH]cn1)C(=O)CN(CCCCN)C(=O)CN(C(=O)CN(C(=O)CN(CCCCN)C(=O)CN(C(=O)CN(C(=O)CN(CCCCN)C(=O)CN(CCc1c[nH]c2ccccc12)C(=O)CN(CCc1c[nH]c2ccccc12)C(=O)CNCCCCN)[C@@H](C)c1ccccc1)[C@@H](C)c1ccccc1)[C@@H](C)c1ccccc1)[C@@H](C)c1ccccc1 [Peptoid 76] (H-[Nlys][Gly(N(CH2)2(3-indolyl))][Gly(N(CH2)2(3-indolyl))][Nlys][Nspe][Nspe][Nlys][Nspe][Nspe][Nlys][Gly(N-CH2CH2-imidazol-4-yl)][Nspe]-NH2)					10.1 ± 0.7	6.3 µM (≈ 11.9 µg/mL)	6.3 µM (≈ 11.9 µg/mL)	>100.0/>100.0	>100.0/>100.0
C[C@@H](c1ccccc1)N(CC(=O)N(CCc1c[nH]cn1)CC(=O)N(CCc1c[nH]c2ccccc12)CC(=O)N(CCc1c[nH]c2ccccc12)CC(N)=O)C(=O)CN(CCCCN)C(=O)CN(CCCCN)C(=O)CN(C(=O)CN(C(=O)CN(CCCCN)C(=O)CN(C(=O)CN(C(=O)CNCCCCN)[C@@H](C)c1ccccc1)[C@@H](C)c1ccccc1)[C@@H](C)c1ccccc1)[C@@H](C)c1ccccc1 [Peptoid 77] (H-[Nlys][Nspe][Nspe][Nlys][Nspe][Nspe][Nlys][Nlys][Nspe][Gly(N-CH2CH2-imidazol-4-yl)][Gly(N(CH2)2(3-indolyl))][Gly(N(CH2)2(3-indolyl))]-NH2)					3.2 ± 0.3	12.5 µM (≈ 23.6 µg/mL)	6.3 µM (≈ 11.9 µg/mL)	>100.0/>100.0	>100.0/>100.0
C[C@@H](c1ccccc1)N(CC(=O)N(CCCCN)CC(=O)N(CCc1c[nH]c2ccccc12)CC(=O)N(CCc1c[nH]c2ccccc12)CC(N)=O)C(=O)CN(CCc1c[nH]cn1)C(=O)CN(CCCCN)C(=O)CN(C(=O)CN(C(=O)CN(CCCCN)C(=O)CN(C(=O)CN(C(=O)CNCCCCN)[C@@H](C)c1ccccc1)[C@@H](C)c1ccccc1)[C@@H](C)c1ccccc1)[C@@H](C)c1ccccc1 [Peptoid 78] (H-[Nlys][Nspe][Nspe][Nlys][Nspe][Nspe][Nlys][Gly(N-CH2CH2-imidazol-4-yl)][Nspe][Nlys][Gly(N(CH2)2(3-indolyl))][Gly(N(CH2)2(3-indolyl))]-NH2)					5.2 ± 0.2	6.3 µM (≈ 11.9 µg/mL)	6.3 µM (≈ 11.9 µg/mL)	>100.0/>100.0	>100.0/>100.0
C[C@@H](c1ccccc1)N(CC(=O)N(CCCCN)CC(=O)N(CCc1c[nH]c2ccccc12)CC(=O)N(CCc1c[nH]c2ccccc12)CC(N)=O)C(=O)CN(CCCCN)C(=O)CN(CCc1c[nH]cn1)C(=O)CN(C(=O)CN(C(=O)CN(CCCCN)C(=O)CN(C(=O)CN(C(=O)CNCCCCN)[C@@H](C)c1ccccc1)[C@@H](C)c1ccccc1)[C@@H](C)c1ccccc1)[C@@H](C)c1ccccc1 [Peptoid 79] (H-[Nlys][Nspe][Nspe][Nlys][Nspe][Nspe][Gly(N-CH2CH2-imidazol-4-yl)][Nlys][Nspe][Nlys][Gly(N(CH2)2(3-indolyl))][Gly(N(CH2)2(3-indolyl))]-NH2)					8.5 ± 0.6	6.3 µM (≈ 11.9 µg/mL)	6.3 µM (≈ 11.9 µg/mL)	>100.0/>100.0	>100.0/>100.0
C[C@@H](c1ccccc1)N(CC(=O)N(CCCCN)CC(=O)N(CCc1c[nH]c2ccccc12)CC(=O)N(CCc1c[nH]c2ccccc12)CC(N)=O)C(=O)CN(CCCCN)C(=O)CN(CCCCN)C(=O)CN(C(=O)CN(C(=O)CN(CCc1c[nH]cn1)C(=O)CN(C(=O)CN(C(=O)CNCCCCN)[C@@H](C)c1ccccc1)[C@@H](C)c1ccccc1)[C@@H](C)c1ccccc1)[C@@H](C)c1ccccc1 [Peptoid 80] (H-[Nlys][Nspe][Nspe][Gly(N-CH2CH2-imidazol-4-yl)][Nspe][Nspe][Nlys][Nlys][Nspe][Nlys][Gly(N(CH2)2(3-indolyl))][Gly(N(CH2)2(3-indolyl))]-NH2)					4.0 ± 0.5	12.5 µM (≈ 23.6 µg/mL)	6.3 µM (≈ 11.9 µg/mL)	>100.0/>100.0	>100.0/>100.0
